Broadly, the EC50 is the midpoint of the concentration-response curve.

Each structure is given as a SMILES string.

This experiment has as its target T1, Human GPR120 short form (Homo sapiens, UniProt Q5NUL3).
T1 construct: expressed in transfected cells
T1 sequence (Q5NUL3 1-361): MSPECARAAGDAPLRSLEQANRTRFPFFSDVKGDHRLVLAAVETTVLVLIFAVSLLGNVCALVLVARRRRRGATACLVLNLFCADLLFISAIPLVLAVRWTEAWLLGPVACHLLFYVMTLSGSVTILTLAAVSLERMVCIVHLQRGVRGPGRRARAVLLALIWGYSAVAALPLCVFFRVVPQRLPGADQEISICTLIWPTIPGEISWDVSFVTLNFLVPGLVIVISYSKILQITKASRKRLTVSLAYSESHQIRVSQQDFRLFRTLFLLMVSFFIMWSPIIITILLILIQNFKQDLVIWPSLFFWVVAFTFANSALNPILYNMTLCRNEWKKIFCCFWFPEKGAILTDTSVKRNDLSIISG
In words: Human GPR120 calcium flux assay (FLIPR), Procedure Calcium A. To be noted: HEK-293 cells expressing human GPR120 short form, 2500 cells/well; read-out: GPR120 Ca2+ Assay A EC50. It counts as cell-based. From the text: This in vitro assay serves to assess test compound agonist activity against the short splice variant (SVS with Accession number NM_001195755.1 confirmed by sequencing data) of the GPR120 receptor. The Human Short splice variant #2 (NM_001195755.1) is missing an in-frame coding exon compared to variant 1 (the Human Long splice variant NM_181745.3), resulting in a shorter isoform (GPR120-S) lacking a 16 aa protein segment compared to isoform GPR120-L. The assay platform utilizes HEK-293 cells stably transfected to express the Human GPR120 short form. These cells are first loaded with the Ca^+2 sensitive dye, Fluo-4 NW. Upon stimulation, intracellular released Ca^+2 can bind to the dye and alter its fluorescence intensity. This increase in fluorescence signal, and thus the flux in intracellular [Ca^2+], is detected and quantitated by fluorescence imaging using a FLIPR reader. The effect of the agonist is measured as a function of concentration and used to calculate an EC50 based upon a response curve.
In this procedure 2500 cells/well were employed.
A Human GPR120 clone (Genbank accession number NM_001195755.1) was placed into the pcDNA3.1 mammalian expression vector carrying the neomycin resistance gene. A stable mammalian cell was generated by placing the above clone into a HEK293 background. Clonal cells responding to long chain fatty acids had expression levels of GPR120 confirmed by RT-qPCR. Human HEK-GPR120 cells were cultured in Dulbecco's Modified Eagle's Medium (DMEM)/F12 medium supplemented with 10% fetal bovine serum (FBS), 1% L-Glutamine and 1% penicillin/streptomycin and 0.5 mg/ml G-418. Cells were split 2 times a week to keep the cells in the log-phase growth.
In preparation for the assay, HEK cells stably transfected with Human GPR120 (2.5K cells per well in 25 uL growth medium) were seeded into 384-well plates and then incubated overnight (37° C., 5% CO2). The next day, the media was changed to 20 μL assay buffer and the cell starved for 1 h at 37° C. The dye loading solution (2× dye) was prepared using 10 mL assay buffer, 100 μL of 250 mM probenecid, 1 bottle of Component A, and 20 μl of dye in DMSO. Twenty μL of the 2× dye loading buffer was then added to each well. The plates were incubated at 37° C. for 30 min, then at room temperature for an additional 15 minutes, before performing the assay on FLIPR. Test compounds were prepared in assay buffer (2 uL of cpd+198 uL assay buffer, final DMSO in assay plate is 0.2%) at the desired concentration, more particularly at 100, 50, 25, 12.5, 6.25, 3.125, 1.562, 0.781, 0.391, 0.195, 0.098, 0.049, 0.024 and 0.012 μM.
The assay was performed on a FLIPR plate reader using the following parameters. Baseline was read for 10 seconds at 1 sec intervals. The program was set to transfer 10 μL of ligand from compound plate to cell plate after baseline reading. Aspiration was executed at: 10 μL/sec speed, 4.6 μL height; Dispensing was executed at: 30 μL/sec speed, 45 μL height. After compound addition, each well was read for 300 sec, with measurements collected at 1 sec intervals.
The kinetic data from the FLIPR was based upon a 5 minute window for data collection. The fluorescence of each sample well was used for individual calculations of a normalized RFU value, which was defined as maximum response minus the minimum response. The normalized fluorescence reading (RFU) was calculated as follows: RFU=Fmax−Fmin The data were fitted to a sigmoidal dose-response curve with a variable Hill slope (<2) using nonlinear regression with GraphPad Prism 5.0 to calculate the EC50 values. The Fitting Equation was: Y=Bottom+(Top−Bottom)/(1+10^((Log EC50−X)*HillSlope)), where X is the log of the concentration and Y is the response.
In general terms: Calcium flux is commonly read through the fluorescence of an indicator in the cells.
For `Cc1c(CCC(=O)O)ccc(OCc2sc(Cl)cc2-c2ccc(Cl)cc2)c1C` [Cpd 6, 3-(4-[[5-chloro-3-(4-chlorophenyl)thiophen-2-yl]methoxy]-2,3-dimethylphenyl) propanoic acid], the EC50 was 90 nM. Under `O=C(O)CCc1cc(F)c(OCc2sc(Cl)cc2-c2ccc(Cl)cc2)c(F)c1` [Cpd 10, 3-(4-[[5-chloro-3-(4-chlorophenyl)thiophen-2-yl]methoxy]-3,5-difluorophenyl)propanoic acid] stands 123 nM; under `Cc1c(CCCO)ccc(OCc2sc(Cl)cc2-c2ccc(Cl)cc2)c1C` [Cpd 15, 3-(4-[[5-chloro-3-(4-chlorophenyl)thiophen-2-yl]methoxy]-2,3-dimethylphenyl)propan-1-ol], 266 nM; under `CCc1ccc(-c2cc(F)sc2COc2ccc(CCCO)c(F)c2F)cc1` [Cpd 17, 3-(4-[[3-(4-ethylphenyl)-5-fluorothiophen-2-yl]methoxy]-2,3-difluorophenyl)propan-1-ol], 406 nM.

`OCCCc1cc(F)c(OCc2sc(F)cc2-c2ccc(Cl)cc2)c(F)c1` [Cpd 18, 3-(4-[[3-(4-chlorophenyl)-5-fluorothiophen-2-yl]methoxy]-3,5-difluorophenyl)propan-1-ol]: the concentration giving a half-maximal response (EC50) worked out at 518 nM.

Regarding `CCc1ccc(-c2cc(C(F)(F)F)sc2COc2ccc(CCC(=O)O)c(F)c2F)cc1` [Cpd 21, 3-(4-((3-(4-ethylphenyl)-5-(trifluoromethyl)thiophen-2-yl)methoxy)-2,3-difluorophenyl)propanoic acid], the EC50 was found to be 788 nM. For `CCc1ccc(-c2cc(C(F)(F)F)sc2COc2c(F)cc(CCC(=O)O)cc2F)cc1` [Cpd 22, 3-(4-((3-(4-ethylphenyl)-5-(trifluoromethyl)thiophen-2-yl)methoxy)-3,5-difluorophenyl)propanoic acid] the value was 924 nM. Under `Cc1ccc(-c2csc(C(F)(F)F)c2COc2c(F)cc(CCCO)cc2F)cn1` [Cpd 36, 3-(3,5-difluoro-4-((4-(6-methylpyridin-3-yl)-2-(trifluoromethyl)thiophen-3-yl)methoxy)phenyl)propan-1-61] stands 90 nM.

On to `O=C(O)CCc1ccc(OCc2c(-c3ccc(Cl)cc3)csc2C(F)(F)F)c(F)c1F` [Cpd 47, 3-(4-((4-(4-chlorophenyl)-2-(trifluoromethyl)thiophen-3-yl)methoxy)-2,3-difluorophenyl)propanoic acid], for which the EC50 worked out at 166 nM. For `CCc1ccc(-c2csc(C(F)(F)F)c2COc2ccc(CCC(=O)O)c(C)c2C)cc1` [Cpd 54, 3-(4-((4-(4-ethylphenyl)-2-(trifluoromethyl)thiophen-3-yl)methoxy)-2,3-dimethylphenyl)propanoic acid] the value was 199 nM; for `Cc1c(CCC(=O)O)ccc(OCc2c(-c3ccc(Cl)cc3)csc2C(F)(F)F)c1C` [Cpd 57, 3-(4-((4-(4-chlorophenyl)-2-(trifluoromethyl)thiophen-3-yl)methoxy)-2,3-dimethylphenyl)propanoic acid], 278 nM. For `Cc1c(CCC(=O)O)ccc(OCc2c(-c3ccc(Cl)cc3F)csc2C(F)(F)F)c1C` [Cpd 59, 3-(4-((4-(4-chloro-2-fluorophenyl)-2-(trifluoromethyl)thiophen-3-yl)methoxy)-2,3-dimethylphenyl)propanoic acid] the value was 348 nM. Turning to `COc1ccc(-c2csc(C(F)(F)F)c2COc2ccc(CCC(=O)O)c(C)c2C)cc1` [Cpd 60, 3-(4-((4-(4-methoxyphenyl)-2-(trifluoromethyl)thiophen-3-yl)methoxy)-2,3-dimethylphenyl)propanoic acid], the EC50 was determined as 510 nM.

Turning to `CCc1ccc(-c2sc(C)c(C(F)(F)F)c2COc2ccc(CCC(=O)O)c(C)c2C)cc1` [Cpd 61, 3-(4-[[2-(4-ethylphenyl)-5-methyl-4-(trifluoromethyl)thiophen-3-yl]methoxy]-2,3-dimethylphenyl) propanoic acid], the 50% effective concentration (EC50) came out at 564 nM.

Turning to `Cc1ccc(-c2csc(C(F)(F)F)c2COc2c(F)cc(CCC(=O)O)cc2F)cn1` [Cpd 62, 3-(3,5-difluoro-4-((4-(6-methylpyridin-3-yl)-2-(trifluoromethyl)thiophen-3-yl)methoxy)phenyl)propanoic acid], the half-maximal effective concentration (EC50) is 747 nM. As for `O=C(O)CCc1ccc(OCc2c(-c3ccc(Cl)cc3)nsc2C(F)(F)F)c(F)c1` [Cpd 68, 3-(4-[[3-(4-chlorophenyl)-5-(trifluoromethyl)-1,2-thiazol-4-yl]methoxy]-3-fluorophenyl)propanoic acid], the EC50 was determined as 28 nM. For `CCc1ccc(-c2nsc(C(F)(F)F)c2COc2ccc(CCC(=O)O)c3sccc23)cc1` [Cpd 92, 3-(4-[[3-(4-ethylphenyl)-5-(trifluoromethyl)-1,2-thiazol-4-yl]methoxy]-1-benzothiophen-7-yl)propanoic acid] the value was 70 nM. Under `CCc1ccc(-c2nsc(C(F)(F)F)c2COc2ccc(CCC(=O)O)c3c2CCC3)cc1` [Cpd 103, 3-(7-[[3-(4-ethylphenyl)-5-(trifluoromethyl)-1,2-thiazol-4-yl]methoxy]-2,3-dihydro-1H-inden-4-yl)propanoic acid] stands 80 nM.

Turning to `Cc1c(CCC(=O)O)ccc(OCc2c(Cl)nsc2-c2ccc(C(F)(F)F)cc2)c1C` [Cpd 112, 3-[4-([3-chloro-5-[4-(trifluoromethyl)phenyl]-1,2-thiazol-4-yl]methoxy)-2,3-dimethylphenyl]propanoic acid], the 50% effective concentration (EC50) worked out at 99 nM. Under `CCc1ccc(-c2snc(Cl)c2COc2c(F)cc(CCC(=O)O)cc2F)cc1` [Cpd 124, 3-(4-[[3-chloro-5-(4-ethylphenyl)-1,2-thiazol-4-yl]methoxy]-3,5-difluorophenyl)propanoic acid] stands 114 nM. For `Cc1cc(OCc2c(-c3ccc(Cl)cc3)nsc2C(F)(F)F)c(F)cc1CCC(=O)O` [Cpd 125, 3-(4-((3-(4-chlorophenyl)-5-(trifluoromethyl)isothiazol-4-yl)methoxy)-5-fluoro-2-methylphenyl)propanoic acid] the value was 121 nM; for `CCc1ccc(-c2nsc(C(F)(F)F)c2COc2ccc(CCC(=O)O)c3ccccc23)cc1` [Cpd 130, 3-(4-[[3-(4-ethylphenyl)-5-(trifluoromethyl)-1,2-thiazol-4-yl]methoxy]naphthalen-1-yl)propanoic acid], 125 nM; for `CC(=O)c1ccc(-c2nsc(C(F)(F)F)c2COc2c(F)cc(CCC(=O)O)cc2F)cc1` [Cpd 131, 3-(4-[[3-(4-acetylphenyl)-5-(trifluoromethyl)-1,2-thiazol-4-yl]methoxy]-3,5-difluorophenyl) propanoic acid], 129 nM.

As for `COc1cc(-c2nsc(C(F)(F)F)c2COc2ccc(CCC(=O)O)c(C)c2C)ccc1Cl` [Cpd 144, 3-(4-((3-(4-chloro-3-methoxyphenyl)-5-(trifluoromethyl)isothiazol-4-yl)methoxy)-2,3-dimethylphenyl)propanoic acid], the EC50 was found to be 160 nM.

These data come from patent US9067898B1, “Isothiazole derivatives as GPR120 agonists for the treatment of type II diabetes” (Janssen Pharmaceutica NV, priority 2014, dated 2015).
